Some results are limits rather than exact numbers.

Data on four compounds can be found in article PMC12645083, “Microwave‐Enhanced Synthesis of 2‐Styrylquinoline‐4‐Carboxamides With Promising Anti‐Lymphoma Activity” (Archiv Der Pharmazie, 2025).

One assay deals with HD-MB03. Nature of the assay: In vitro antiproliferative activity, resazurin cell viability. The format is cell-based. Conditions: Homo sapiens, medulloblastoma cells, 72 h of treatment, mean ± SEM, at least three experiments. The procedure:
(§1) To test the newly synthesized compounds, various human cell lines were employed. HD‐MB03 cells were purchased from DSMZ (Braunschweig, Germany), while A549, MDA‐MB‐231, RPMI‐8420, SU‐DHL‐8, TOLEDO, VL51, SU‐DHL‐1, SU‐DHL‐18, and KM‐H2 were obtained from ATCC (Manassas, VA, USA). Cells were cultured in DMEM (for MDA‐MB‐231 and A549) or RPMI‐1640 (for RPMI‐8420, SU‐DHL‐8, TOLEDO, VL51, SU‐DHL‐1, SU‐DHL‐18, KM‐H2, and HD‐MB03) media (Gibco, Milan, Italy). Both media were supplemented with 115 units/mL penicillin G (Gibco, Milan, Italy), 115 µg/mL streptomycin (Invitrogen, Milan, Italy), and 10% fetal bovine serum (Invitrogen, Milan, Italy). Peripheral blood mononuclear cells (PBMCs) were isolated from healthy donors as previously described. For cytotoxicity assays, PBMCs were resuspended at 5 × 10⁵ cells/mL in complete RPMI medium with or without 2.5 µg/mL phytohemagglutinin (PHA) (Irvine Scientific) to stimulate T‐cell activation and proliferation. All cell lines were maintained at 37°C in a humidified atmosphere containing 5% CO₂. All compounds were dissolved in DMSO at a 10 mM stock concentration. For dose–response assays, cells were seeded in 96‐well plates at densities optimized for each cell line: HD‐MB03 at 10,000 cells/well, A549 at 4000 cells/well, and MDA‐MB‐231 at 7000 cells/well. All other cell lines were seeded at 20,000 cells/well in a final volume of 100 µL per well. After 24 h, cells were treated with a 6‐point serial dilution of compounds starting from 10 µM, in triplicate for statistical analysis. Seventy‐2 h posttreatment, 10 µL of resazurin solution (100 µg/mL) was added to each well, and cells were incubated for an additional 3–6 h. Fluorescence was measured using a Spark 10 M microplate reader (Tecan Group Ltd., Männedorf, Switzerland) with excitation at 535 nm and emission at 600 nm. The IC₅₀ was defined as the concentration of compound required to inhibit cell proliferation by 50% compared to cells treated with the highest DMSO concentration.
(§2) To test the newly synthesized compounds, various human cell lines were employed. HD-MB03 cells were purchased from DSMZ (Braunschweig, Germany), while A549, MDA-MB-231, RPMI-8420, SU-DHL-8, TOLEDO, VL51, SU-DHL-1, SU-DHL-18, and KM-H2 were obtained from ATCC (Manassas, VA, USA). Cells were cultured in DMEM (for MDA-MB-231 and A549) or RPMI-1640 (for RPMI-8420, SU-DHL-8, TOLEDO, VL51, SU-DHL-1, SU-DHL-18, KM-H2, and HD-MB03) media (Gibco, Milan, Italy). Both media were supplemented with 115 units/mL penicillin G (Gibco, Milan, Italy), 115 µg/mL streptomycin (Invitrogen, Milan, Italy), and 10% fetal bovine serum (Invitrogen, Milan, Italy). Peripheral blood mononuclear cells (PBMCs) were isolated from healthy donors as previously described. ^[1] For cytotoxicity assays, PBMCs were resuspended at 5 × 10⁵ cells/mL in complete RPMI medium with or without 2.5 µg/mL phytohemagglutinin (PHA) (Irvine Scientific) to stimulate T cell activation and proliferation. All cell lines were maintained at 37 °C in a humidified atmosphere containing 5% CO₂. All compounds were dissolved in DMSO at a 10 mM stock concentration. For dose–response assays, cells were seeded in 96-well plates at densities optimized for each cell line: HD-MB03 at 10,000 cells/well, A549 at 4,000 cells/well, and MDA-MB-231 at 7,000 cells/well. All other cell lines were seeded at 20,000 cells/well in a final volume of 100 µL per well. After 24 hours, cells were treated with a 6-point serial dilution of compounds starting from 10 µM, in triplicate for statistical analysis. Seventy-two hours post-treatment, 10 µL of resazurin solution (100 µg/mL) was added to each well, and cells were incubated for an additional 3–6 hours. Fluorescence was measured using a Spark 10M microplate reader (Tecan Group Ltd., Männedorf, Switzerland) with excitation at 535 nm and emission at 600 nm. […]
Background: The colour change of resazurin is a common sign of viable cells or microbes.

The subject of another assay is RPMI-8402. Described as above. The format is cell-based. Particulars: Homo sapiens, T-lymphoblastic leukemia cells, 72 h of treatment, mean ± SEM. The procedure: as §1, §2
In a further assay the test system is A549. The assay is described as above. Conditions: Homo sapiens, non-small cell lung cancer, 72 h of treatment, mean ± SEM. The format is cell-based. The procedure: as §1, §2
A further assay relates to MDA-MB-231. The assay is described as above. The format is cell-based. Conditions: Homo sapiens, triple-negative breast cancer, 72 h of treatment, mean ± SEM. The procedure:
as §1, §2

The next assay relates to SU-DHL-8. The assay is described as above. The format is cell-based. Particulars: Homo sapiens, B lymphocyte, large cell lymphoma, 72 h of treatment, mean ± SEM. The procedure: as §1, §2
Another assay relates to TOLEDO. Nature of the assay: Antiproliferative activity on lymphoma-derived cell lines, resazurin. The format is cell-based. Particulars: Homo sapiens, diffuse large B-cell lymphoma, 72 h of treatment, mean ± SEM. The procedure: as §1, §2
A further assay concerns VL51. Described as above. The format is cell-based. Particulars: Homo sapiens, splenic B-cell lymphoma, 72 h of treatment, mean ± SEM. The procedure: as §1, §2
A further assay deals with KM-H2. The description is as above. The format is cell-based. Particulars: Homo sapiens, Hodgkin lymphoma, 72 h of treatment, mean ± SEM. The procedure:
as §1, §2

For the next assay, the system named is SU-DHL-18. The assay is described as above. The format is cell-based. Particulars: Homo sapiens; lymph node lymphoma; 72 h of treatment; mean ± SEM. The procedure:
as §1, §2

A further assay has as its system SU-DHL-1. The assay is described as above. The format is cell-based. Particulars: Homo sapiens, histiocytic large cell lymphoma, 72 h of treatment, mean ± SEM. The procedure: as §1, §2
For assay [1], the system named is panel of five lymphoma cell lines (VL51, TOLEDO, SU-DHL-18, SU-DHL-1, KM-H2). Nature of the assay: Antiproliferative activity, range over the panel of five lymphoma cell lines. The format is cell-based, human. Conditions: range or statement over the lymphoma cell lines, 72 h; for IC50: Homo sapiens.
Source text: Based on these interesting results on hematological malignancies‐derived cell lines, styrylquinolines 4i, 4n, 4s and 4ah were further tested for their antiproliferative activity on a panel of five lymphoma cell lines (VL51, splenic B‐cell lymphoma; TOLEDO, diffuse large B‐cell lymphoma, non‐Hodgkin lymphoma; SU‐DHL‐18, lymph node lymphoma; SU‐DHL‐1, histiocytic large cell lymphoma; KM‐H2, Hodgkin lymphoma) (Table 3). In this case, a different behaviour was observed.
as §1

As to `O=C(Nc1ccc([N+](=O)[O-])cc1)c1cc(/C=C/c2ccccc2)nc2ccccc12` [4i, (E)-N-(4-nitrophenyl)-2-styrylquinoline-4-carboxamide], the IC50 is more than 10 µM in the assay with HD-MB03; 1.14 ± 0.12 µM in the assay with RPMI-8402; more than 10 µM in the assay with A549; more than 10 µM in the assay on MDA-MB-231; 1.64 ± 0.25 µM in the assay on SU-DHL-8; 1.05 ± 0.09 µM in the assay on TOLEDO. Moreover, the IC50 in the assay on VL51 is 1.03 ± 0.02 µM; in the assay with KM-H2, 2.8 ± 0.21 µM; in the assay with SU-DHL-18 it was 7.6 ± 2.8 µM; with SU-DHL-1, 2.32 ± 1.46 µM; in assay [1] it was 1.03 to 7.6 µM.

For the compound `COc1cc(/C=C/c2cc(C(=O)Nc3c(C)cccc3C)c3ccccc3n2)cc(OC)c1OC` [4n, (E)-N-(2,6-dimethylphenyl)-2-(3,4,5-trimethoxystyryl)quinoline-4-carboxamide], the IC50 is more than 10 µM in the assay with HD-MB03; 0.79 ± 0.07 µM with RPMI-8402; more than 10 µM with A549; more than 10 µM in the assay with MDA-MB-231; 0.46 ± 0.05 µM with SU-DHL-8; more than 10 µM in the assay with TOLEDO. For the same compound, the IC50 with VL51, in the assay on KM-H2, in the assay with SU-DHL-18 and in the assay on SU-DHL-1 was more than 10 µM each time. Further, the “IC50 values, range over lymphoma cell lines” value in assay [1] is given as “devoid of antiproliferative activity”.

For the compound `O=C(Nc1ccc(Cl)cc1)c1cc(/C=C/c2ccccc2[N+](=O)[O-])nc2ccccc12` [4ah, (E)-N-(4-chlorophenyl)-2-(2-nitrostyryl)quinoline-4-carboxamide], the 50% inhibitory concentration (IC50) was more than 10 µM in the assay on HD-MB03; 1.33 ± 0.02 µM in the assay with RPMI-8402; 6.92 ± 0.68 µM with A549; 4.99 ± 0.35 µM with MDA-MB-231; 2.15 ± 0.45 µM with SU-DHL-8; 4.93 ± 0.62 µM with TOLEDO. Besides, the IC50 in the assay with VL51 is more than 10 µM; with KM-H2 it was 6.74 ± 2.12 µM; in the assay on SU-DHL-18 it was 3.79 ± 0.51 µM; with SU-DHL-1 it was 4.9 ± 0.31 µM; in [1] it was 3.79 to 6.74 µM.

Consider `COc1cc(/C=C/c2cc(C(=O)Nc3ccc([N+](=O)[O-])cc3)c3ccccc3n2)cc(OC)c1OC` [4s, (E)-N-(4-nitrophenyl)-2-(3,4,5-trimethoxystyryl)quinoline-4-carboxamide], for which the half-maximal inhibitory concentration (IC50) was more than 10 µM in the assay with HD-MB03; more than 10 µM in the assay with RPMI-8402; more than 10 µM in the assay on A549; more than 10 µM in the assay with MDA-MB-231; 1.37 ± 0.14 µM in the assay on SU-DHL-8; more than 10 µM in the assay with TOLEDO. The IC50 in the assay with VL51, with KM-H2, in the assay on SU-DHL-18 and in the assay with SU-DHL-1 was more than 10 µM each time. Further, the “IC50 values, range over lymphoma cell lines” value in [1] is “devoid of antiproliferative activity”.

By IC50 is commonly meant the midpoint of a concentration-inhibition curve. The low end stands for greater potency in that assay, the high end for weaker potency in that assay.
